Test results: patent US8952024B2, “Herbicidal pyrimidone derivatives” (E I du Pont de Nemours and Company, priority 2009, dated 2015)

Experiments:
Experiment in all cases: Test B pre-/postemergence plant response
Format in all cases: in vivo
Settings in all cases: Preemergence
[1] = system: galium (catchweed bedstraw, Galium aparine)
Procedure, shortened: (§1)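 Each species received compound formulated in non-phytotoxic solvent with surfactant, either at planting into a loam and sand blend or as a foliar spray once plants reached 2 to 18 cm in peat-based medium. Plants stayed in the greenhouse 13 to 15 days before visual evaluation against controls, scored 0 (no effect) to 100 (complete control).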

[2] = system: nightshade (eastern black nightshade, Solanum ptycanthum)
Procedure, shortened: as §1

[3] = system: sunflower (common oilseed sunflower, Helianthus annuus)
Procedure, shortened: as §1

[4] = 31 g ai/ha, scale 0 to 100 (0 no effect, 100 complete control)
[5] = 62 g ai/ha, scale 0 to 100 (0 no effect, 100 complete control)
[6] = 125 g ai/ha, scale 0 to 100, 0 no effect, 100 complete control

Compound	Plant response rating, Galium ([1]; 250 g ai/ha, 0 to 100 scale)	Plant response rating, Galium [1, 4]	Plant response rating, Galium [1, 5]	Galium plant response rating ([1]; 125 g ai/ha, 0 to 100 scale)	Plant response rating, Nightshade ([2]; 250 g ai/ha, 0 to 100 scale)	Plant response rating, Nightshade [2, 4]	Plant response rating, Nightshade [2, 5]	Nightshade plant response rating ([2]; 125 g ai/ha, 0 to 100 scale)	Plant response rating, Sunflower ([3]; 250 g ai/ha, 0 to 100 scale)	Plant response rating, Sunflower [3, 4]	Sunflower plant response rating ([3]; 125 g ai/ha, 0 to 100 scale)	Plant response rating, Galium [1, 6]	Plant response rating, Nightshade [2, 6]	Plant response rating, Sunflower [3, 5]	Plant response rating, Sunflower [3, 6]	Galium plant response rating ([1]; 250 g ai/ha, 0 to 100 scale)	Nightshade plant response rating ([2]; 250 g ai/ha, 0 to 100 scale)	Sunflower plant response rating ([3]; 250 g ai/ha, 0 to 100 scale)	Sunflower plant response rating (0 to 100 scale) ([3]; 0 is no effect, 100 is complete control, rated after 13 to 15 days, application rate of this section not shown)
Cc1c(Cl)cccc1-n1c(-c2ccccc2)ncc(C(=O)C2=C(O)CCCC2=O)c1=O [Compound 40]	90	50	70	85	100	65	98	98	80	20	75	–	–	–	–	–	–	–	–
O=C1CCCC(O)=C1C(=O)c1cnc(-c2ccsc2)n(-c2ccccc2)c1=O [Compound 56]	85	0	0	–	–	85	98	–	–	0	–	60	98	60	65	–	–	–	–
Cc1ccccc1-n1c(-c2cccc(Cl)c2)ncc(C(=O)C2=C(O)CCCC2=O)c1=O [Compound 36]	95	10	80	80	98	80	95	95	85	0	55	–	–	–	–	–	–	–	–
O=C1CCCC(O)=C1C(=O)c1cnc(-c2ccccc2)n(-c2cccc(Br)c2)c1=O [Compound 38]	85	0	40	85	100	90	95	98	75	0	25	–	–	–	–	–	–	–	–
Cc1cccc(Cl)c1-n1c(-c2ccccc2)ncc(C(=O)C2=C(O)CCCC2=O)c1=O [Compound 46]	70	0	0	0	98	95	95	98	60	0	0	–	–	–	–	–	–	–	–
Cc1cc(-n2c(-c3ccccc3)ncc(C(=O)C3=C(O)CCCC3=O)c2=O)ccc1F [Compound 53]	90	0	0	–	–	98	98	–	–	15	–	0	100	55	65	–	–	–	–
COc1ccc(-n2c(-c3ccccc3)ncc(C(=O)C3=C(O)CCCC3=O)c2=O)cc1OC [Compound 218]	–	60	80	–	–	98	98	–	–	75	–	95	100	80	90	100	100	95	–
3-cyclohexyl-5-[(2-hydroxy-6-oxo-1-cyclohexen-1-yl)carbonyl]-2-phenyl-4(3H)-pyrimidinone [Compound 128]	75	5	50	50	100	85	100	100	98	75	95	–	–	85	–	–	–	–	–
CCc1ccc(-n2c(-c3ccccc3)ncc(C(=O)C3=C(O)CCCC3=O)c2=O)cc1 [Compound 219]	–	75	85	–	–	90	98	–	–	0	–	98	100	45	80	100	100	85	–
CCc1ccccc1-n1c(-c2ccccc2)ncc(C(=O)C2=C(O)CCCC2=O)c1=O [Compound 255]	–	0	50	–	–	75	90	–	–	45	–	60	100	60	75	100	100	90	–
Cc1ccccc1-n1c(-c2ccccc2)ncc(C(=O)C2=C(O)CCCC2=O)c1=O [Compound 12]	95	0	50	90	100	100	100	100	100	95	98	–	–	98	–	–	–	–	–
Cc1ccc(F)cc1-n1c(-c2ccccc2)ncc(C(=O)C2=C(O)CCCC2=O)c1=O [Compound 44]	98	0	65	65	100	95	98	100	80	10	75	–	–	–	–	–	–	–	–
CCCCc1ncc(C(=O)C2=C(O)CCCC2=O)c(=O)n1-c1cccc(C)c1 [Compound 63]	20	0	0	–	–	80	95	–	–	5	–	0	98	15	20	–	–	–	–
Cn1c(-c2ccccc2)ncc(C(=O)C2=C(O)CCCC2=O)c1=O [Compound 55]	85	0	0	–	–	60	98	–	–	10	–	20	100	60	60	–	–	–	–
5-[(2-hydroxy-6-oxo-1-cyclohexen-1-yl)carbonyl]-2,3-diphenyl-4(3H)-pyrimidinone [Compound 2]	–	–	–	–	–	–	–	–	–	–	–	–	–	–	–	–	–	–	0
